# Target: T1, HLA-B*13:01 (with beta-2-microglobulin) (Homo sapiens, UniProt A0A583ZBB4)
# T1 construct: for SPR incubated with beta-2-microglobulin (Chemicon) and amine-coupled; no peptide ligand mentioned for SPR; with Beta-2-microglobulin
# Experiment: surface plasmon resonance (Biacore T200), protein immobilised by amine coupling
# Assay type: binding
compound,measurement,value
Nc1ccc(S(=O)(=O)c2ccc(N)cc2)cc1 [DDS],Kd,68.5 µM

# Source: PMC9375929, “Functional and structural characteristics of HLA-B*13:01-mediated specific T cells reaction in dapsone-induced drug hypersensitivity” (Journal of Biomedical Science, 2022)
